In PMC8113213, “Physiologically based kinetic modelling based prediction of in vivo rat and human acetylcholinesterase (AChE) inhibition upon exposure to diazinon” (Archives of Toxicology, 2021):
Read-outs that look alike come from different tables or passages of the source.

Assays:
[1] = rat; ref Poet et al. 2004; cited from earlier work
[2] = human; ref Garfitt et al. 2002; Poet et al. 2004; cited from earlier work
rat RBC AChE = molecular target: T1, rat RBC AChE (Rattus norvegicus, UniProt P37136); test: In vitro AChE inhibition assay (Ellman) with extracted rat RBC AChE; format: biochemical; settings: rat; IC50 DZO/IC50 DZN, TEF of DZO set at 1.0
T1 construct: the membrane fraction (containing AChE) was sedimented by centrifugation at 20,000g for 40 min; tissue BioIVT; host or cells: rat red blood cell membranes (from whole blood)
T1 sequence (P37136 other isoform, or with tags, fused parts or gaps): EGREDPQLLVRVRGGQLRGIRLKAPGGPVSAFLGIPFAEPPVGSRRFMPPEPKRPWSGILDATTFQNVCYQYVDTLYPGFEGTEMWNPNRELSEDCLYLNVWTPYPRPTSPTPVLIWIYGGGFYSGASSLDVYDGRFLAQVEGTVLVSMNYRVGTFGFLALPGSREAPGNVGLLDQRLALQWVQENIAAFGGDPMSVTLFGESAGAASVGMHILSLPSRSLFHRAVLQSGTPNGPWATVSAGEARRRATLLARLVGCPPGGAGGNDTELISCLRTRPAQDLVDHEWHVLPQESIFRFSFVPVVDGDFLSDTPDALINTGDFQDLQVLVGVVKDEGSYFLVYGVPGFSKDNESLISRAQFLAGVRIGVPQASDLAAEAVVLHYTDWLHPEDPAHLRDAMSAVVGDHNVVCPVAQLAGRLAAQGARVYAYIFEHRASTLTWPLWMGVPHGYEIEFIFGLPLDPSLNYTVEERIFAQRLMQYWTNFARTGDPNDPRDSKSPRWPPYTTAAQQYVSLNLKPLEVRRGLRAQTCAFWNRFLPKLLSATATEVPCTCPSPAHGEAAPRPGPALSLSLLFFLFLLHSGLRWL
Description: (§1) However, since recombinant rat AChE was not commercially available, extracted rat RBC AChE was used. […] The concentration of DTNB was calculated based on the concentration ratio (ATC/DTNB) of 2 (Stern et al. [2014]). […] To initiate the inhibition reaction, 1 µl rhAChE or rat AChE (final concentration 0.6 mU/ml) was added to the incubation. The total incubation volume was 50 µl. After 15 min incubation at 37℃, 150 µl reaction reagents (mixture of ATC at a final concentration of 150 µM and DTNB at a final concentration of 75 µM) were added into each well. The final total volume of each well was 200 µl. Subsequently, the 96-well plate was measured continuously for 10 min at absorbance 412 nm at 37℃ to quantify the remaining AChE activity.
(§2) The rhAChE and rat AChE activity were expressed as the remaining AChE activity relative to solvent control (100% activity) and positive control (0% activity) based on Eq. (2):2 AChEactivity\%=A412t10-t0testcompound-A412t10-t0positivecontrol/A412t10-t0solventcontrol-A412t10-t0positivecontrol×100\% , where the A412(t10 − t0)test compound is the change in the absorbance at A412 nm between 0 and 10 min for the test compound, the A412(t10 − t0)positive control is the change in the absorbance at A412 nm between 0 and 10 min for the CPO sample, and the A412(t10 − t0)solvent control is the change in the absorbance at A412nm between 0 and 10 min for the 0.2% ethanol sample.

[3] = molecular target: T2, recombinant human AChE (rhAChE) (Homo sapiens, UniProt P22303); test: biochemical
T2 construct: purchased Sigma-Aldrich Co
T2 sequence (P22303 32-614): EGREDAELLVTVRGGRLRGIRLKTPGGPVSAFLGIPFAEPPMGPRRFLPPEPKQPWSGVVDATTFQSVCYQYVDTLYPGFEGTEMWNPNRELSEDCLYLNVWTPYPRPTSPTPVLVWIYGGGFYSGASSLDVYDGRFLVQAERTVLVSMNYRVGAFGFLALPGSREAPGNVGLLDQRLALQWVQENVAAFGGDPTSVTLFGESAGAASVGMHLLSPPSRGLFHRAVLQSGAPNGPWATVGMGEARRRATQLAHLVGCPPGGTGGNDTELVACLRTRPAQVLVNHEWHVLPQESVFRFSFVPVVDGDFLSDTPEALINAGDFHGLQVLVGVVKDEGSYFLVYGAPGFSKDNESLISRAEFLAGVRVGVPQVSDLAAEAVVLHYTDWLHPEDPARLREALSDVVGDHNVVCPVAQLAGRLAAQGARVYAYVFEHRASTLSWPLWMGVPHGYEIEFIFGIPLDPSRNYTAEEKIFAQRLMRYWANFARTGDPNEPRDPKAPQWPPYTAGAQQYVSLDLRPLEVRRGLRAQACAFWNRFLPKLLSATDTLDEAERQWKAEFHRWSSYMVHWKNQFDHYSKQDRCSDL
Description: as §1, §2

PON1 [4] = molecular target: T3, PON1 (Homo sapiens, UniProt P27169); test: in vitro; format: in vitro ADME; settings: for Km: pH 7.4
T3 construct: 1 µl of human or rat liver microsomes (final concentration 0.1 mg microsomal protein/ml); tissue Corning; host or cells: human liver microsomes, pooled from 20 donors
T3 sequence (P27169 whole entry): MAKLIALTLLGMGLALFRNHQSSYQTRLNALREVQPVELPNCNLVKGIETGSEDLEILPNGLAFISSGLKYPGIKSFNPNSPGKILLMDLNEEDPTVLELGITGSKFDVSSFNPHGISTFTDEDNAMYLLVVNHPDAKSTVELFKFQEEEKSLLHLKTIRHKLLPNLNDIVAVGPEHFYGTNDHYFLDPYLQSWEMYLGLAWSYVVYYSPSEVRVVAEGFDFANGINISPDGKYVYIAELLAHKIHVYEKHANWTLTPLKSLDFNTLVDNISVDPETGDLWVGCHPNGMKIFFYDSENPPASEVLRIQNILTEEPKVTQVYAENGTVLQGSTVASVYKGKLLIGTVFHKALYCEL
Description: (§3) Preliminary studies were carried to optimize and select the incubation conditions with respect to linearity for both incubation time and microsomal/plasma protein concentration (data not shown). […] After 1 min preincubation in a 37 °C water bath, 1 µl of human or rat liver microsomes (final concentration 0.1 mg microsomal protein/ml), or 1 µl of human or rat plasma (final concentration 0.385 mg plasma protein/ml for human plasma and 0.300 mg plasma protein/ml for rat plasma) was added to initiate the reaction. The total incubation mixture was 200 µl. Control incubations were carried out by replacing liver microsomes or plasma with buffer. The reaction was terminated after 1 min incubation (human samples) or 2 min incubation (rat samples) by adding 200 µl ice-cold ACN. Subsequently, samples were centrifuged at 16000 g (4℃) for 5 min, and supernatants were further diluted (30 × for liver sample and 40 × for plasma sample) in a mixture of ACN and 50 mM Tris–HCl (pH 7.4) (ratio 1:1, v/v) before analysis by LC–MS/MS for quantification of metabolite formation.
(§4) The chromatographic separations were conducted on a Kinetex® 1.7 µm Phenyl-Hexyl 100 Å LC column (100 × 2.1 mm). The injection volume was 1 µl at a flow rate of 0.3 ml/min. The temperature of the column was kept at 40℃. The mobile phase A consisted of ultrapure water with 0.1% (v/v) formic acid, and mobile phase B consisted of acetonitrile (ACN) with 0.1% (v/v) formic acid. […] The instrument was used in positive mode with multiple reaction monitoring (MRM). The optimized acquisition parameters for DZN, DZO and the metabolite IMHP are listed in Supplementary data I.
(§5) The calculation was done using GraphPad Prism 5 for Windows, version 5.04 (GraphPad software, San Diego California USA).

[5] = Unbound fraction in the in vitro medium by rapid equilibrium dialysis (RED); format: in vitro ADME
Description: To assess whether this assumption is reasonable, the fuDZOin vitro was determined. This was done using rapid equilibrium dialysis (RED) performed in line with the manufacturer’s protocol (Thermo Fisher Scientific [2012]). […] The whole device was then incubated for 5 h at 37℃ on a shaker at 250 rmp to reach equilibrium. Then 50 µl of post-incubation sample were separately collected from the sample and buffer chambers into the corresponding Eppendorf tubes. After this 50 µl of PBS buffer was added to the sample taken from the sample chamber and 50 µl of in vitro medium was added to the sample taken from buffer chamber and subsequently 300 µl ice-cold 90% acetonitrile (ACN/water, v/v) were added to both samples to precipitate the protein. All samples were put on ice for 30 min, followed by centrifugation for 30 min at 15,000g. The supernatants were collected for LC–MS/MS analysis of the amount of DZO.

PON1 [6] = molecular target: T4, PON1 (Rattus norvegicus, UniProt P55159); test: in vitro; format: in vitro ADME; set-up: 1 µl of human or rat liver microsomes (final concentration 0.1 mg microsomal protein/ml); tissue Corning; host or cells: rat liver microsomes (Sprague–Dawley, male); settings: for Km: pH 7.4
T4 sequence (P55159 whole entry): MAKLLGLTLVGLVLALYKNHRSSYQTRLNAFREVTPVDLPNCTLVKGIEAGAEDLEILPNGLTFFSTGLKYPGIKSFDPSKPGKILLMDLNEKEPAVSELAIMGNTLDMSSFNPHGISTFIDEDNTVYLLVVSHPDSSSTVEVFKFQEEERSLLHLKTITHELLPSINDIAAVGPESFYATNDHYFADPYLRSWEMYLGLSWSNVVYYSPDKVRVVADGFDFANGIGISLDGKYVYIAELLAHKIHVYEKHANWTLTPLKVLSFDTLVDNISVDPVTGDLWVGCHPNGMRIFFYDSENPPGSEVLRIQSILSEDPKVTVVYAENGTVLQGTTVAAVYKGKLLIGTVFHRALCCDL
Description: as §3, §4, §5

PON1 [7] = molecular target: T4, PON1; settings: ref Makhaeva et al. 2009; cited from earlier work

## CCOP(=O)(O)OCC [DEP, diethylphosphate]
[1]
  Ke, elimination into the urine: 0.29 h⁻¹
[2]
  Ke, elimination into the urine: 12 h⁻¹

## CCOP(=O)(OCC)Oc1cc(C)nc(C(C)C)n1 [DZO, Diazoxon]
Rat RBC AChE
  toxic equivalency factor (TEF): 1.0
[3]; human, IC50 DZO/IC50 DZN, TEF of DZO set at 1.0
  toxic equivalency factor (TEF): 1.0
[3]; rhAChE, 15 min incubation at 37℃, read-out: IC50 for inhibition of AChE activity
  IC50: 44 nM
PON1 [4]
  Vmax DZO to IMHP, plasma: 124.000 nmol/min/mg plasma protein
PON1 [4]; human liver microsomes
  Vmax DZO to IMHP, liver: 53.490 nmol/min/mg microsomal protein
  Km: 557 µM
PON1 [4]; human plasma
  Km: 701 µM
[5]; in vitro medium in a RED insert device, read-out: recovery rate of post-dialysis in the in vitro medium
  recovery at 5 h, 0.05 µM: 74%
[5]; in vitro medium with 0.1 mg/ml BSA, read-out: unbound fraction in the in vitro medium (fu in vitro)
  fraction unbound at 5 h, 0.05 µM: 0.96
PON1 [6]; rat liver microsomes
  Km: 668 µM
  Vmax DZO to IMHP, liver: 691.100 nmol/min/mg microsomal protein
PON1 [6]; rat plasma
  Km: 536 µM
  Vmax DZO to IMHP, plasma: 431.400 nmol/min/mg plasma protein
PON1 [6]; rat versus human liver
  PON1-mediated conversion of DZO faster in rat liver than in human liver: 10.7 fold
  higher Vmax of PON1-mediated conversion in rat liver: 12.9 fold
PON1 [6]; rat versus human plasma
  PON1-mediated conversion of DZO faster in rat plasma than in human plasma: 4.5 fold
  higher Vmax of PON1-mediated conversion in rat plasma: 3.5 fold

## CCOP(O)(=S)OCC [DETP, diethylthiophosphate]
[1]
  Ke, elimination into the urine: 0.29 h⁻¹
[2]
  Ke, elimination into the urine: 12 h⁻¹

## CCOP(=O)(OCC)Oc1ccc([N+](=O)[O-])cc1 [paraoxon]
PON1 [7]
  faster PON1-mediated hydrolysis by rat than human plasma samples: approximately 4 fold

## Cc1cc(=O)nc(C(C)C)[nH]1 [IMHP, 2-isopropyl-4-methyl-6-hydroxypyrimidine]
[1]
  Ke, elimination into the urine: 0.29 h⁻¹
[2]
  Ke, elimination into the urine: 12 h⁻¹
